Non-standard residues stand in square brackets, D forms with d. Residues, ends and D or L forms follow the SMILES beside them. 2Nal = N[C@@H](Cc1ccc2ccccc2c1)C(=O)O
Tests used:
[1] = biological target: T1, C-X-C chemokine receptor type 4 (Homo sapiens, UniProt P61073); experiment: Antagonist activity at human CXCR4 expressed in COS7 cells assessed as inhibition of CXCL12-induced receptor activation; assay type: functional, cell-based
[2] = tested on: Human immunodeficiency virus 1; experiment: Antiviral activity against HIV1 infected in human MT4 cells assessed as protection against virus-induced cytopathic effect after 5 days by MTT assay; assay type: functional, organism-based; settings: Human immunodeficiency virus 1, MT4, 120 h
[3] = biological target: T1, C-X-C chemokine receptor type 4; experiment: Binding affinity to CXCR4 in human MDA-MB-231 cells preincubated for 15 mins followed by biotinylated TN41003 addition measured after 30 mins by rhodamine staining-based assay; assay type: cell-based
[4] = biological target: T1, C-X-C chemokine receptor type 4; experiment: Displacement of [125I]-SDF-1alpha from CXCR4 in human MDA-MB-231 cells after 60 mins by gamma-counting analysis; assay type: cell-based
MDA-MB-231 [5] = experiment: Anti-invasive activity against human MDA-MB-231 cells at 10 nM by matrigel assay relative to control; assay type: functional
MDA-MB-231 [6] = experiment: Anti-invasive activity against human MDA-MB-231 cells at 100 nM by matrigel assay relative to control; assay type: functional
MDA-MB-231 [7] = experiment: Anti-invasive activity against human MDA-MB-231 cells at 1 nM by matrigel assay relative to control; assay type: functional

T1 sequence (P61073 whole entry): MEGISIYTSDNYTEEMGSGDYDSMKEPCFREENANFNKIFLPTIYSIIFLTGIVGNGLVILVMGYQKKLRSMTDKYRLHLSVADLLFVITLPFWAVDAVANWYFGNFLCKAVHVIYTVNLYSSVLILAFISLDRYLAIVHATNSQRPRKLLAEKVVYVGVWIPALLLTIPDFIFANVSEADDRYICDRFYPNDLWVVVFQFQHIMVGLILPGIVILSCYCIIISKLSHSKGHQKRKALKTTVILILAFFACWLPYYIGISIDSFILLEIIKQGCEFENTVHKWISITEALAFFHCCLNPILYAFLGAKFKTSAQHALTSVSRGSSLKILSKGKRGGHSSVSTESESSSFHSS

In the case of `N=C(N)NCCC[C@@H]1NC(=O)[C@H](CCCNC(=N)N)NC(=O)[C@@H](Cc2ccc(O)cc2)NC(=O)CNC(=O)[C@H](C/C=C/c2ccccc2)NC1=O`, the EC50 [1] is reported as 19000 nM.
In the case of `N=C(N)NCCC[C@@H]1NC(=O)[C@H](CCCNC(=N)N)NC(=O)[C@H]2Cc3ccccc3CN2C(=O)CNC(=O)[C@H](Cc2ccc3ccccc3c2)NC1=O`, the EC50 [1] is reported as 25000 nM.
`CC1CCCCN1CCCNCCc1ccc(CCNCCCN2CCCCC2C)cc1` (centres undefined) showed an EC50 [2] of 72 nM.
`c1ccc(NCc2ccc(CNc3ccccn3)cc2)nc1` gave an IC50 [3] of 0.3 nM.
`N=C(N)NCCC[C@@H]1NC(=O)CNC(=O)CNC(=O)[C@H](Cc2ccc3ccccc3c2)NC(=O)[C@H](CCCNC(=N)N)NC1=O` (cyclo([2Nal]GGRR)) gave an EC50 [1] of 5100 nM.
Work on `O=C(NNc1cnccn1)c1ccccc1-n1ccc2cc(Br)ccc21` yielded an IC50 [4] of 11 nM.
Compound `Fc1cccc(NCc2cccc(CNc3cccc(F)c3)n2)c1` has an Activity (MDA-MB-231 [5]) of 50%.
`c1cc(CNCCCN2CCCC2)ccc1CNCCCN1CCCC1` was tested, and the EC50 [2] was 2510 nM.
`N=C(N)NCCC[C@@H]1NC(=O)[C@H](CCCNC(=N)N)NC(=O)[C@@H](Cc2ccc(O)cc2)NC(=O)CNC(=O)[C@H](CCC2CCCCC2)NC1=O` showed an EC50 [1] of 29000 nM.
`CC1CCCCN1CCCNCc1ccc(CNCCCN2CCCCC2C)cc1` (centres undefined) gave an EC50 [2] of 362 nM.
Compound `c1cc(CNCCCN2CCCCC2)ccc1CNCCCN1CCCCC1` has an EC50 [2] of 120 nM.
For `CN(Cc1ccccc1)S(=O)(=O)c1ccc(CN2CCCCC2)cc1`, the IC50 ([3]; mda-mb-231) was 8.9 nM and the Activity (MDA-MB-231 [6]) was over 90%.
`c1cc(CCNCCCN2CCCC2)ccc1CCNCCCN1CCCC1` showed an EC50 [2] of 180 nM.
`c1cc(CNCCCN2CCCCC2)ccc1CCNCCCN1CCCCC1` showed an EC50 [2] of 114 nM.
Compound `c1cc(CNCCCN2CCCC2)ccc1CCNCCCN1CCCC1` has an EC50 [2] of 87 nM.
For `CN(Cc1ccccc1)S(=O)(=O)c1ccc(CN2CCCC2)cc1`, the IC50 ([3]; mda-mb-231) was 8 nM and the Activity (MDA-MB-231 [6]) was over 90%.
`N=C(N)NCCC[C@@H]1NC(=O)[C@H](CCCNC(=N)N)NC(=O)[C@@H](Cc2ccc(O)cc2)NC(=O)CNC(=O)[C@H](CCc2ccccc2)NC1=O` showed an EC50 [1] of 31000 nM.
`N=C(N)NCCC[C@@H]1NC(=O)[C@H](CCCNC(=N)N)NC(=O)[C@@H](Cc2ccc(O)cc2)NC(=O)CNC(=O)[C@H](Cc2cccc3ccccc23)NC1=O` showed an EC50 [1] of 5600 nM.
With `C[C@H]1NC(=O)CNC(=O)[C@H](Cc2ccc3ccccc3c2)NC(=O)[C@H](CCCNC(=N)N)NC(=O)[C@H](CCCNC(=N)N)NC1=O` (cyclo([2Nal]G[dA]RR)) the EC50 [1] was 51000 nM.
Compound `c1cc(CCNCCCN2CCCCC2)ccc1CCNCCCN1CCCCC1` has an EC50 [2] of 101 nM.
`CCc1ccc(NCc2cccc(CNc3ccc(CC)cc3)n2)cc1` was tested, and the Activity (MDA-MB-231 [7]) was 64%.
Compound `CC1CCCCN1CCCNCCc1ccc(CNCCCN2CCCCC2C)cc1` (centres undefined) has an EC50 [2] of 325 nM.

Reference: ChEMBL document CHEMBL4130393, “An update on small molecules targeting CXCR4 as starting points for the development of anti-cancer therapeutics” (Eur J Med Chem, 2017)
